In patent publication US5663207A, “Gem-dichlorocyclopropanes as antitumor agents” (priority 1995, dated 1997):
Read-outs that look alike come from different tables or passages of the source.

Experiments:
[1] = molecular target: T1, estrogen receptor (Rattus norvegicus, UniProt P06211); experiment: Receptor binding assay: displacement of [3H]-estradiol from rat uterine cytosol; parameters: species or system rat (Sprague-Dawley); settings: for [3H]-estradiol displacement curve (in words): rat uterine cytosolic estrogen receptor; for RBA (relative binding affinity): relative to estradiol = 100%
T1 construct: ovariectomized rat uterine cytosolic estrogen receptor preparation; from tissue; host or cells: uterine cytosol of ovariectomized Sprague-Dawley rats (immature rats from Sasco are named as uterus source, mature ovariectomized rats)
T1 sequence (P06211 1-600): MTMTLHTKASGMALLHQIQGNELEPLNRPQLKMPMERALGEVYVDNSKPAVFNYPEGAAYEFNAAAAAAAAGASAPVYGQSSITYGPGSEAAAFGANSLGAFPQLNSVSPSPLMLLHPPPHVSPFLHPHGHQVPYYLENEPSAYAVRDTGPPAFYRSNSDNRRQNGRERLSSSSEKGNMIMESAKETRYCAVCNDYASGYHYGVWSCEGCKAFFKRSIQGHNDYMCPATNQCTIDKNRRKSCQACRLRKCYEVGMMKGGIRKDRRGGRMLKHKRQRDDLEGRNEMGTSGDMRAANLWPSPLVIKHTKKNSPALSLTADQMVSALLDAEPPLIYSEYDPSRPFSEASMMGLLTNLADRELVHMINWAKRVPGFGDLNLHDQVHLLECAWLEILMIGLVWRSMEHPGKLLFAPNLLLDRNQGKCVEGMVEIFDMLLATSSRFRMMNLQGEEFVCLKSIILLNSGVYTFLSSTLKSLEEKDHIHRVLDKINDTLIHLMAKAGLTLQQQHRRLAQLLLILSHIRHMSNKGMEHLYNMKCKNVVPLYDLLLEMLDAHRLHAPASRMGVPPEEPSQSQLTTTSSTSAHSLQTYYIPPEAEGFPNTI
Source text: (§1) The biological evaluation of the test compounds consisted of the in vitro rat cytosolic estradiol receptor binding assay, the in vivo immature mouse uterotrophic (estrogenic) and antiuterotrophic (antiestrogenic) assays, and the in vitro suppression of the proliferation of the ER positive MCF-7 human breast cancer cell line. Estradiol (pure agonist), TAM (agonist in mice and antagonist in MCF-7), MER 25 (pure antagonist) and Analog II (antagonist in mice) were used in the assay as standards.
(§2) Vital-free immature female Swiss-Webster mice were obtained at 17-19 days of age from Sasco weighing 8-10 g, and were used in the uterotrophic and antiuterotrophic assays. Immature female Sprague-Dawley rats, obtained at 17-19 days of age from Sasco, weighing 28-33 g, were used as sources of uteri for the estradiol receptor binding assay. Animals were housed in wire topped polycarbonate cages at six animals per cage, with the environment controlled at 25° C. and a 12 h light/dark cycle. The animals received a diet of Wayne Lab Blox rodent chow and tap water ad libitum.
The RBAs of the test compounds were determined by the displacement of [^3 H]-estradiol in vitro, as described previously (DAY, B. W., […], R. A., JAIN, P., PENTO, J. T., MOUSISSIAN, G. K. AND MEYER, K. L. (1991), "Synthesis and biological evaluation of a series of 1,1-dichloro-2,2,3-triarylcyclopropanes as pure antiestrogens", Journal of Medicinal Chemistry, 34, 842; KORENMAN, S. G. (1969), "Comparative binding affinity of estrogens and its relation to estrogenic potency", Steroid, 13, 163). Mature female Sprague-Dawley rats were ovariectomized at least two weeks prior to the receptor binding experiment. Each test compound was assayed at three concentrations in duplicate over a range of 10^-3 -10^-5 M and 10^-6 -10^-8 M for the estradiol standard. The non-specific binding was determined by a parallel incubation of each compound with the addition of diethylstilbestrol to give a final concentration of 2×10^-5 M DES which was sufficient to saturate all the estrogen receptors present in the cytosolic fraction. Specific displacement for each compound was determined by subtraction of nonspecific displacement from total displacement. The [^3 H]-estradioldisplacement curve for each test compound was determined by linear repression analysis and plotted graphically. The relative binding affinity for each compound was calculated (BLISS, C.I. (1967), "The statistics in biology", McGraw Hill, Inc: New York).
^a Determined by competitive radiometric binding assay with rat
uterine cytosol as a source of receptor, [^3 H]estradiol as tracer,
and dextrancoated charcoal as absorbant for free ligand.
^c Binding affinities are expressed relative to that of estradiol =
100% (RBA = relative binding affinity) and are the average of duplicate
determinations minus nonspecific binding.
The relative binding affinities (RBAs), as determined by the competitive radiometric binding assay and measured by [^3 H]-estradiol displacement from the ovariectomized rat uterine cytosolic estrogen receptor preparation, after subtracting non-specific receptor binding, were calculated for all of the synthesized target compounds, TAM, MER 25, Analog II, and estradiol. The displacement curves were plotted as percent receptor-bound [^3 H]-estrodiol versus concentration of test compounds (not shown) and the receptor binding affinity of each compound is presented in Table II.

[2] = system: MCF-7 human breast cancer cells; experiment: In vitro MCF-7 human breast cancer cell growth inhibition assay; type: cell-based; settings: for inhibition at 1 µM: Homo sapiens
Source text: as §1
MCF-7 (estrogen-receptor positive) human breast cancer cells (obtained from the Michigan Cancer Foundation, Detroit, Mich.) were grown at 37° C. in 75 cm^2 tissue culture (T-75) flasks, as monolayer cultures in RPMI 1640 phenol red-free media supplemented with 2 mM L-glutamine, gentamicin (50 μg/mL), penicillin (100 units/mL), streptomycin (100 μg/mL ) and calf serum (5%). Cultures were grown in an incubator 37° C. in a humid 5% CO2 atmosphere, and fed on alternate days. Expotential growth was maintained by subculturing at eight day intervals when the cells per T-75 flask reached 10 to 12×10^6 cells. Cells were trypsinized, washed and plated in multiwell plates at a density of 5×10^4 cells/well in 3 mL of RPMI 1640 media. The cells were allowed to attach and were in logarithmic growth when the test compounds were added. The test compounds (10^-6 M) in the presence or absence of a 10-fold lower dose of estradiol were dissolved in a polyethylene glycol 400: ethanol (55:45) mixture and added in the culture media in duplicate. Control samples received vehicle alone at the same concentration used in the treatment groups. The final concentration of the vehicle mixture was 0.1% of the incubation media. Cell growth was measured on alternate days using the hemocytometric trypan blue exclusion method. Percent inhibition of MCF-7 cells was calculated as the ratio of the control mean cell count per well minus the treatment group mean cell count per well to the control mean cell count per well, multiplied by 100.
^b % MCF7 inhibition was calculated as follows: […]
Thirteen compounds, Analog II, TAM, and MER 25 were tested for their antiproliferative activity in the MCF-7 human breast cancer cell line (Table II). Compounds were tested at a concentration of 10^-6 M in the presence or absence of 10^-7 M estradiol to assess their ability to alter the growth of the calls (Table II). The 10^-6 M concentration was selected since it was reported that the inhibition of the MCF-7 cells by antiestrogens and TAM occurred either at that concentration or less, and were both selective and estrogen receptor specific. Concentrations of antiestrogens greater than 5×10^-6 M were reported to have nonspecific cytotoxic effects (BRIAND, P. AND […], A. E. (1984), "Effect of estrogen and antiestrogen on the human breast cancer cell line MCF-7 adapted to growth at low serum concentration", Cancer Research, 44, 1114).

[3] = system: Immature Swiss-Webster female mice (uterine weight); experiment: Uterotrophic assay for estrogenic activity in immature mice; type: in vivo, mouse (Swiss-Webster); settings: for uterine weight response (estrogenic activity, in words): doses of 5, 25 and 100 μg (total dose)
Source text: The biological evaluation of the test compounds consisted of the in vitro rat cytosolic estradiol receptor binding assay, the in vivo immature mouse uterotrophic (estrogenic) and antiuterotrophic (antiestrogenic) assays, and the in vitro suppression of the proliferation of the ER positive MCF-7 human breast cancer cell line.
as §2
Immature Swiss-Webster female mice (8-15 g) at 17-19 days of age were used. Estradiol was used in the dosage range of […] (total dose) as the assay standard. Each cyclopropyl analogue was examined at doses of 5, 25, and 100 μg (total dose). […] Estrogenic activity was measured as an increase in uterine weight produced by each test compound.

[4] = MCF7, read-out: MCF-7 Inhibition
[5] = average of duplicate determinations minus nonspecific binding
[6] = MCF7, 10^-6 M, printed as dash with footnote g, read-out: MCF-7 Inhibition
[7] = retested at 100, 250, and 500 μg

Row | Compound | [3H]-estradiol displacement curve (in words) [1] | RBA (relative binding affinity) ([1]; given as dash with footnote e) | effect on MCF-7 cell growth (in words) ([2]; 10^-6 M) | inhibition at 1 µM [2, 4] | uterine weight response (estrogenic activity, in words) [3] | RBA (relative binding affinity) [1, 5] | inhibition at 1 µM ([2]; MCF7, 10^-6 M, versus control mean cell count, read-out: MCF-7 Inhibition) | inhibition at 1 µM [2, 6] | uterotrophic response on retest (in words) [3, 7] | uterotrophic response on retest (in words) ([3]; retested at 25, 100, and 250 μg)
1 | COc1ccc(C2(c3ccc(OC)cc3)CC2(Cl)Cl)cc1 [Compound 23, 1,1-Dichloro-2,2-bis-(p-methoxyphenyl)cyclopropane] | dose-dependent displacement curves with shallower slopes than their acetoxy and phenolic analogues | --^e (Less than 0.01%.) | inhibited cell growth | 30% | well below the control group | – | – | – | – | –
2 | COc1ccc([C@@H]2[C@H](c3ccc(OC)cc3)C2(Cl)Cl)cc1 [Compound 14, 1,1-Dichloro-cis-2,3-bis-(p-methoxyphenyl) cyclopropane] | dose-dependent displacement curves with shallower slopes than their acetoxy and phenolic analogues | – | inhibited cell growth | – | – | 0.01% | 37% | – | – | –
3 | CC(=O)Oc1ccc([C@H]2[C@H](c3ccccc3)C2(Cl)Cl)cc1 (relative stereo) [Compound 18, 1,1-Dichloro-trans-2-(p-acetoxyphenyl)-3-phenylcyclopropane] | – | – | did not | – | – | 0.25% | – | < 10% | – | –
4 | CC(=O)Oc1ccc(C2(c3ccc(OC(C)=O)cc3)C(c3ccccc3)C2(Cl)Cl)cc1 (centres unmarked) [Compound 37, 1,1-Dichloro-2,2-bis-(p-acetoxyphenyl)-3-phenylcyclopropane] | – | – | did not alter cell growth | < 10% | well below the control group | 0.08% | – | – | – | –
5 | COc1ccc([C@H]2[C@H](c3ccccc3)C2(Cl)Cl)cc1 (relative stereo) [Compound 16, 1,1-Dichloro-trans-2-(p-methoxyphenyl)-3-phenylcyclopropane] | dose-dependent displacement curves with shallower slopes than their acetoxy and phenolic analogues | --^e (Less than 0.01%.) | did not | – | slight increase in uterine weight at doses of 25 and 100 μg | – | – | < 10% | no significant uterotrophic responses | –
6 | CC(=O)Oc1ccc(C2(c3ccc(OC(C)=O)cc3)C(Cl)(Cl)C23CCCCC3)cc1 [Compound 31, 1,1-Dichloro-2,2-bis-(p-acetoxyphenyl)-spiro[2.5]octane] | – | – | – | < 10% | well below the control group | 0.05% | – | – | – | –
7 | COc1ccc(C2(c3ccc(OC)cc3)C(c3ccccc3)C2(Cl)Cl)cc1 (centres unmarked) [Compound 35, 1,1-Dichloro-2,2-bis-(p-methoxyphenyl)-3-phenylcyclopropane] | dose-dependent displacement curves with shallower slopes than their acetoxy and phenolic analogues | --^e (Less than 0.01%.) | did not alter cell growth | < 10% | slight increase in uterine weight at doses of 25 and 100 μg | – | – | – | – | no significant uterotrophic responses
8 | Oc1ccc(C2(c3ccc(O)cc3)CC2(Cl)Cl)cc1 [Compound 25, 1,1-Dichloro-2,2-bis-(p-hydroxyphenyl) cyclopropane] | – | – | only 23 inhibited cell growth | < 10% | well below the control group | 0.04% | – | – | – | –
9 | COc1ccc(C2(c3ccc(OC)cc3)C(Cl)(Cl)C23CCCCC3)cc1 [Compound 29, 1,1-Dichloro-2,2-bis-(p-methoxyphenyl)-spiro[2.5]octane] | dose-dependent displacement curves with shallower slopes than their acetoxy and phenolic analogues | --^e (Less than 0.01%.) | active inhibitors of cell growth | 37% | slight increase in uterine weight at doses of 25 and 100 μg | – | – | – | no significant uterotrophic responses | –
10 | COc1ccc(C2(c3ccc(O)cc3)CC2(Cl)Cl)cc1 (centres unmarked) [Compound 24, 1,1-Dichloro-2-(p-methoxyphenyl)-2-(p-hydroxyphenyl)cyclopropane] | – | – | only 23 inhibited cell growth | < 10% | – | 0.02% | – | – | – | –
